According to publication PMC6905855, “Agonist-specific voltage-dependent gating of lysosomal two-pore Na^+ channels” (eLife, 2019):
Where “and” joins values, the source holds several entries; their conditions need not be identical. Equal values may be shown once.

Columns and labels:
hTPC2 = target: T1, hTPC2 (Homo sapiens, UniProt Q8NHX9); test: Whole-endolysosome recordings of ITPC2; type: biochemical; conditions: for inactivation of ITPC2, I500ms / I10ms: @-120mV; for time course of LyNa-VA1.2-induced ITPC2: EL
T1 construct: expressed in transfected cells; host or cells: Cos1 and HEK293

[1] = target: T2, surface-expressing mutant TPC2 channel (TPC2^LL/AA) in HEK293 cells (Homo sapiens, UniProt Q8NHX9, L11A/L12A); test: Whole-cell recordings of ITPC2-LL/AA; type: cell-based; conditions: for voltage-dependent inactivation of ITPC2, I1s / 0s: @-140mV; for time course of LyNa-VA1.2-induced ITPC2: wc; for current density: whole cell recordings
T2 construct: expressed in transfected cells; host or cells: HEK293
Method in brief: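 HEK293 cells transiently expressing EGFP-tagged human TPC2 L11A/L12A, a plasma-membrane-targeted mutant, recorded 24–36 h post-transfection. Whole-cell patch clamp with fast perfusion of bath solutions; currents digitized at 10 kHz and filtered at 2 kHz.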

hTPC1 = target: T3, hTPC1 (Homo sapiens, UniProt Q9ULQ1); test: Whole-endolysosome recordings of ITPC1; type: biochemical
T3 construct: expressed in transfected cells; host or cells: Cos1
Procedure: It was therefore of interest to explore whether TCAs/LyNa-VAs could also act on TPC1. To investigate this, we used two different voltage paradigms. […] Second, we used a tail current paradigm to measure the amplitude of the peak inward current at −120 mV following prolonged steps to various potentials (Figure 4E).
Figure 4. […] HP = 0 mV. […] Dotted lines in A indicate where the currents were measured. […] Data are presented as Mean ± S.E.M (n = 3 patches). […] (G) Normalized I-V plots of basal voltage-dependent currents in WT TPC1- and TPC1^R540I-transfected cells. […] Figure 4—source data 1. […] Figure 4—figure supplement 1. […] (A) A voltage protocol that elicited ITPC1 tail currents as shown in Figure 4E (from −140 to 100 mV with a ∆V = 20 mV, 1 s with a 10 s inter-step interval). Arrows indicate where tail currents were measured. (B) A voltage protocol that elicited ITPC1 tail currents as shown in C. […] HP = 0 mV. […] (A) Basal whole-endolysosome ITPC1 (left) or ITPC1-R540I (right) was elicited by voltage steps (−140 to +100 mV with ΔV = 20 mV) in the absence of PI(3,5)P2 in TPC1-transfected Cos1 cells ([She et al., 2019]). Tail currents were elicited at −120 mV. (B) The effects of PI(3,5)P2 (0.3 µM) on ITPC1 (left) and ITPC1-R540I (right) step currents. […] A preconditioning voltage (+80 mV, 0.1 s) was applied before voltage steps starting from −140 to 100 mV (0.5 s, ∆V = 20 mV).
All TPC1 and TPC2 mutants were generated with a site-directed mutagenesis kit (Qiagen) using EGFP- human TPC1 and TPC2 as the templates. All constructs were confirmed by DNA sequencing.
Whole-endolysosome recordings were performed on manually isolated enlarged endolysosomes ([Wang et al., 2012]). In brief, a patch pipette was pressed against a cell and quickly pulled away to slice the cell membrane. Enlarged endolysosomes were released into a dish and identified by monitoring EGFP-TPC1/2 or the mCherry-TPC1/2 fluorescence. After formation of a gigaseal between the patch pipette and the enlarged endolysosome, capacitance transients were compensated. Voltage steps of several hundred mVs with millisecond duration were then applied to break into the vacuolar membrane. The whole-endolysosome configuration was verified by the re-appearance of capacitance transients after break-in.
Data were collected using an Axopatch 200A patch clamp amplifier, Digidata 1440, and pClamp 10.2 software (Axon Instruments). Whole-endolysosome currents were digitized at 10 kHz and filtered at 2 kHz. All experiments were conducted at room temperature (21–23°C), and all recordings were analyzed with pClamp 10.2, and Origin 8.0 (OriginLab, Northampton, MA). The permeability to cations (relative to PNa) was estimated based on following equations ([Lewis, 1979]) and Erev measurement under bi-ionic conditions:(1) PX/PNa=γNa/γX{[Na^+]Luminal/[X^+]Cytoplasmic}{exp([…])} (2) PCa/PNa=γNa/γCa{[Na^+]Cytoplasmic/[4[Ca^2+]Luminal}{exp(ErevF/RT)}{1+exp(ErevF/RT)} where R, T, F, Erev, and γ are, respectively, the gas constant, absolute temperature, Faraday constant, reversal potential, and activity coefficient. The liquid junction potentials were measured and corrected as described ([Neher, 1992]).

[2] = lysosome, 200 µM, individual recordings
[3] = whole-endolysosome, 200 µM, mean ± S.E.M
[4] = whole cell, 200 µM, individual recordings
[5] = whole-cell, 200 µM, mean ± S.E.M

T2 sequence (Q8NHX9 whole entry L11A/L12A): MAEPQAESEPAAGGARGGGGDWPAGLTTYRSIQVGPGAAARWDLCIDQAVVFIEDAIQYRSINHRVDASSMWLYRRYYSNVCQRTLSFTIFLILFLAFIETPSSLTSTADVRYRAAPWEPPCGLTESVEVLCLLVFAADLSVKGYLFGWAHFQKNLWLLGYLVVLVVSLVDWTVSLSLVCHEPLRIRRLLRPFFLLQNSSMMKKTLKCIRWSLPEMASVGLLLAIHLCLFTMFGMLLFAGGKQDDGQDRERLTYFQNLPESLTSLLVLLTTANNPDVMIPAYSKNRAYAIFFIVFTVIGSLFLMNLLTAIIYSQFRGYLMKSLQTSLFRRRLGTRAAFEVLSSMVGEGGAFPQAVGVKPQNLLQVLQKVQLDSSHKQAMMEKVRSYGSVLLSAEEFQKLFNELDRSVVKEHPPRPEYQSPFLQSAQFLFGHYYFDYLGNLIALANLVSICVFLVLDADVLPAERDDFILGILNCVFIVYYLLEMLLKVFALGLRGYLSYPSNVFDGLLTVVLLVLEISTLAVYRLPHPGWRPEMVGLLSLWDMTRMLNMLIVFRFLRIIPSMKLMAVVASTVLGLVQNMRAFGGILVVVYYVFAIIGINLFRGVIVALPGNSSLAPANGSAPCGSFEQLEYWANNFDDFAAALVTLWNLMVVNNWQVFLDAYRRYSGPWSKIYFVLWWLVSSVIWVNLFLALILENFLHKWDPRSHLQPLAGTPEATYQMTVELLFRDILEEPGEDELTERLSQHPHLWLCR
T1 sequence (Q8NHX9 whole entry): as the sequence (Q8NHX9 whole entry L11A/L12A) above, with A11L, A12L counted along it

CNCCCN1c2ccccc2CCc2ccccc21 [LyNa-VA1.2, Desipramine]
inactivation of ITPC2, I500ms / I10ms (hTPC2; PI(3,5)P2 0.3 µM, LyNa-VA1.2 100 µM, LyNA1 300 µM, individual tests): 0.6243 and 0.7434 and 0.4902 and 0.5999 and 0.6758 | inactivation of ITPC2, I500ms / I10ms (hTPC2; mean): 0.6267 | time course of LyNa-VA1.2-induced ITPC2 (hTPC2; time 0 s): -0.016 | time course of LyNa-VA1.2-induced ITPC2 (hTPC2; time 2 s): -0.01474 | time course of LyNa-VA1.2-induced ITPC2 (hTPC2; time 4 s): -0.01598 | time course of LyNa-VA1.2-induced ITPC2 (hTPC2; time 6 s): -0.00988 | time course of LyNa-VA1.2-induced ITPC2 (hTPC2; time 8 s): -0.00688 | time course of LyNa-VA1.2-induced ITPC2 (hTPC2; time 10 s): -0.02054 | time course of LyNa-VA1.2-induced ITPC2 (hTPC2; time 12 s): -0.02108 | time course of LyNa-VA1.2-induced ITPC2 (hTPC2; time 14 s): -0.1089 | time course of LyNa-VA1.2-induced ITPC2 (hTPC2; time 16 s): -0.1984 | time course of LyNa-VA1.2-induced ITPC2 (hTPC2; time 18 s): -0.2507 | time course of LyNa-VA1.2-induced ITPC2 (hTPC2; time 20 s): -0.3079 | time course of LyNa-VA1.2-induced ITPC2 (hTPC2; time 22 s): -0.5611 | time course of LyNa-VA1.2-induced ITPC2 (hTPC2; time 24 s): -0.7092 | time course of LyNa-VA1.2-induced ITPC2 (hTPC2; time 26 s): -0.8241 | time course of LyNa-VA1.2-induced ITPC2 (hTPC2; time 28 s): -0.8579 | time course of LyNa-VA1.2-induced ITPC2 (hTPC2; time 30 s): -0.8577 | time course of LyNa-VA1.2-induced ITPC2 (hTPC2; time 32 s): -0.9123 | time course of LyNa-VA1.2-induced ITPC2 (hTPC2; time 34 s): -1 | time course of LyNa-VA1.2-induced ITPC2 (hTPC2; time 36 s): -0.9719 | time course of LyNa-VA1.2-induced ITPC2 (hTPC2; time 38 s): -0.9923 | time course of LyNa-VA1.2-induced ITPC2 (hTPC2; time 40 s): -0.9868 | time course of LyNa-VA1.2-induced ITPC2 (hTPC2; time 42 s): -0.989 | Latency of induced ITPC2 (hTPC2; [2]): 6 s and 8 s and 10 s | Time constant (τ) of induced ITPC2 (hTPC2; [2]): 6.38 s and 6 s and 5.4 s | ITPC2 (hTPC2; whole endolysosome recordings with 100 µM of LyNa-VAs at −120 mV): 1120 ± 94 pA | latency of TPC2 activation (hTPC2; [3]): 7 ± 1 s | time constant (τ) of TPC2 activation (hTPC2; [3]): 8 ± 2 s | voltage-dependent inactivation of ITPC2, I1s / 0s ([1]; whole-cell, individual recordings): 0.09192 and 0.1098 and 0.1458 | voltage-dependent inactivation of ITPC2, I1s / 0s ([1]; whole-cell, mean): 0.1158 | activation of whole-cell ITPC2-LL/AA (in words) ([1]; bath application, symmetric Na^+, 100 µM where stated): ITPC2 was evoked | time course of LyNa-VA1.2-induced ITPC2 ([1]; time 0 s): -0.02373 | time course of LyNa-VA1.2-induced ITPC2 ([1]; time 2 s): -0.02853 | time course of LyNa-VA1.2-induced ITPC2 ([1]; time 4 s): -0.024 | time course of LyNa-VA1.2-induced ITPC2 ([1]; time 6 s): -0.02111 | time course of LyNa-VA1.2-induced ITPC2 ([1]; time 8 s): -0.02193 | time course of LyNa-VA1.2-induced ITPC2 ([1]; time 10 s): -0.01987 | time course of LyNa-VA1.2-induced ITPC2 ([1]; time 12 s): -0.0181 | time course of LyNa-VA1.2-induced ITPC2 ([1]; time 14 s): -0.01154 | time course of LyNa-VA1.2-induced ITPC2 ([1]; time 16 s): -7.79E-04 | time course of LyNa-VA1.2-induced ITPC2 ([1]; time 18 s): -0.01449 | time course of LyNa-VA1.2-induced ITPC2 ([1]; time 20 s): -0.01685 | time course of LyNa-VA1.2-induced ITPC2 ([1]; time 22 s): -0.0503 | time course of LyNa-VA1.2-induced ITPC2 ([1]; time 24 s): -0.06829 | time course of LyNa-VA1.2-induced ITPC2 ([1]; time 26 s): -0.1356 | time course of LyNa-VA1.2-induced ITPC2 ([1]; time 28 s): -0.1797 | time course of LyNa-VA1.2-induced ITPC2 ([1]; time 30 s): -0.2005 | time course of LyNa-VA1.2-induced ITPC2 ([1]; time 32 s): -0.2805 | time course of LyNa-VA1.2-induced ITPC2 ([1]; time 34 s): -0.3854 | time course of LyNa-VA1.2-induced ITPC2 ([1]; time 36 s): -0.4381 | time course of LyNa-VA1.2-induced ITPC2 ([1]; time 38 s): -0.4224 | time course of LyNa-VA1.2-induced ITPC2 ([1]; time 40 s): -0.5193 | time course of LyNa-VA1.2-induced ITPC2 ([1]; time 42 s): -0.5569 | time course of LyNa-VA1.2-induced ITPC2 ([1]; time 44 s): -0.6324 | time course of LyNa-VA1.2-induced ITPC2 ([1]; time 46 s): -0.7257 | time course of LyNa-VA1.2-induced ITPC2 ([1]; time 48 s): -0.7464 | time course of LyNa-VA1.2-induced ITPC2 ([1]; time 50 s): -0.8325 | time course of LyNa-VA1.2-induced ITPC2 ([1]; time 52 s): -0.8418 | time course of LyNa-VA1.2-induced ITPC2 ([1]; time 54 s): -0.8932 | time course of LyNa-VA1.2-induced ITPC2 ([1]; time 56 s): -0.9277 | time course of LyNa-VA1.2-induced ITPC2 ([1]; time 58 s): -0.9561 | time course of LyNa-VA1.2-induced ITPC2 ([1]; time 60 s): -0.9666 | time course of LyNa-VA1.2-induced ITPC2 ([1]; time 62 s): -0.9966 | time course of LyNa-VA1.2-induced ITPC2 ([1]; time 64 s): -0.9748 | time course of LyNa-VA1.2-induced ITPC2 ([1]; time 66 s): -1.0004 | current density ([1]; 5 µM, individual recordings): 10.3471 pA/pF and 4.752 pA/pF and 3.368 pA/pF and 5.887 pA/pF | current density ([1]; 10 µM, individual recordings): 14.5785 pA/pF and 6.451 pA/pF and 2.849 pA/pF and 8.548 pA/pF | current density ([1]; 20 µM, individual recordings): 24.0331 pA/pF and 8.699 pA/pF and 7.085 pA/pF and 17.3826 pA/pF | current density ([1]; 50 µM, individual recordings): 89.8595 pA/pF and 25.0088 pA/pF and 25.4245 pA/pF and 76.3478 pA/pF | current density ([1]; 100 µM, individual recordings): 240.859 pA/pF and 94.6372 pA/pF and 96.3302 pA/pF and 256.8 pA/pF | current density ([1]; 200 µM, individual recordings): 297.455 pA/pF and 239.381 pA/pF and 181.434 pA/pF and 429.652 pA/pF | current density ([1]; 400 µM, individual recordings): 245.487 pA/pF and 193.066 pA/pF and 464.052 pA/pF | Latency of induced ITPC2 [1, 4]: 14 s and 12 s and 20 s | Time constant (τ) of induced ITPC2 [1, 4]: 55 s and 48 s and 30.1 s and 39.1 s | EC50 ([1]; whole-cell recordings at −140 mV, TPC2^LL/AA-transfected HEK293 cells, read-out: EC50): 87 ± 8 µM | latency of TPC2 activation [1, 5]: 15 ± 2 s | time constant (τ) of TPC2 activation [1, 5]: 43 ± 5 s | Dose-dependent activation of TPC1 (normalized ITPC1) (hTPC1; 3 µM, individual patches): 0.01236 and 0.1007 and 0.1129 | Dose-dependent activation of TPC1 (normalized ITPC1) (hTPC1; 3 µM, mean): 0.07532 | Dose-dependent activation of TPC1 (normalized ITPC1) (hTPC1; 10 µM, individual patches): 0.3905 and 0.6013 and 0.2982 | Dose-dependent activation of TPC1 (normalized ITPC1) (hTPC1; 10 µM, mean): 0.43 | Dose-dependent activation of TPC1 (normalized ITPC1) (hTPC1; 30 µM, individual patches): 0.9756 and 1 and 0.7567 | Dose-dependent activation of TPC1 (normalized ITPC1) (hTPC1; 30 µM, mean): 0.9108 | Dose-dependent activation of TPC1 (normalized ITPC1) (hTPC1; 100 µM, individual patches): 1 (2×) and 0.518 | Dose-dependent activation of TPC1 (normalized ITPC1) (hTPC1; 100 µM, mean): 0.8393 | Dose-dependent activation of TPC1 (normalized ITPC1) (hTPC1; 300 µM, individual patches): 0.9299 and 0.7273 | Dose-dependent activation of TPC1 (normalized ITPC1) (hTPC1; 300 µM, mean): 0.8286 | EC50 (hTPC1; whole-endolysosome, n = 3 patches, read-out: EC50, activation of TPC1): 10 ± 1 µM
